# Columns and labels:
# Assay type in all cases: functional
# [1] = tested on: Staphylococcus aureus; assay: Antibacterial activity against Staphylococcus aureus ATCC 29213 assessed as inhibition of visible growth of bacteria incubated for 24 hrs by CLSI protocol based broth-dilution method
# [2] = tested on: Staphylococcus epidermidis; assay: Antibacterial activity against Staphylococcus epidermidis ATCC 12228 assessed as inhibition of visible growth of bacteria incubated for 24 hrs by CLSI protocol based broth-dilution method
# [3] = tested on: Enterococcus faecium; assay: Antibacterial activity against pleuromutilin-resistant Enterococcus faecium 18SC29-2 harboring (lsa(E)-) genotype assessed as inhibition of visible growth of bacteria incubated for 24 hrs by CLSI protocol based broth-dilution method
# [4] = tested on: Enterococcus faecium; assay: Antibacterial activity against pleuromutilin-resistant Enterococcus faecium 18FJZ1-1 harboring (lsa(E)+) genotype assessed as inhibition of visible growth of bacteria incubated for 24 hrs by CLSI protocol based broth-dilution method
# [5] = tested on: Staphylococcus aureus; assay: Antibacterial activity against methicillin-resistant Staphylococcus aureus J1 harboring (lsa(E)+) genotype assessed as inhibition of visible growth of bacteria incubated for 24 hrs by CLSI protocol based broth-dilution method
# [6] = tested on: Staphylococcus simulans; assay: Antibacterial activity against pleuromutilin-resistant Staphylococcus simulans isolate 55-1 harboring cfr+ genotype assessed as inhibition of visible growth of bacteria incubated for 24 hrs by CLSI protocol based broth-dilution method
Compound,MIC [1] [µg/mL],MIC [2] [µg/mL],also measured
C=C[C@]1(C)C[C@@H](OC(=O)CSc2ccc(NC(=O)c3ccc(B(O)O)cc3)cc2)[C@]2(C)[C@H](C)CC[C@]3(CCC(=O)[C@H]32)[C@@H](C)[C@@H]1O,0.063,0.5,–
C=C[C@]1(C)C[C@@H](OC(=O)CSc2ccc(NC(=O)c3ccc4c(c3)B(O)OC4)cc2)[C@]2(C)[C@H](C)CC[C@]3(CCC(=O)[C@H]32)[C@@H](C)[C@@H]1O,0.016,0.25,–
C=C[C@]1(C)C[C@@H](OC(=O)CSc2cccc(NC(=O)c3cc(B(O)O)ccc3OC)c2)[C@]2(C)[C@H](C)CC[C@]3(CCC(=O)[C@H]32)[C@@H](C)[C@@H]1O,0.031,0.031,–
C=C[C@]1(C)C[C@@H](OC(=O)CSc2cccc(NC(=O)c3ccc(B(O)O)c(F)c3)c2)[C@]2(C)[C@H](C)CC[C@]3(CCC(=O)[C@H]32)[C@@H](C)[C@@H]1O,0.063,16,–
C=C[C@]1(C)C[C@@H](OC(=O)CS[C@@H]2CC[C@@H](NC(=O)c3ccc4c(c3)B(O)OC4)C[C@H]2O)[C@]2(C)[C@H](C)CC[C@]3(CCC(=O)[C@H]32)[C@@H](C)[C@@H]1O,0.063,4,–
C=C[C@]1(C)C[C@@H](OC(=O)CSc2ccc(NC(=O)c3ccc(B(O)O)c(F)c3)cc2)[C@]2(C)[C@H](C)CC[C@]3(CCC(=O)[C@H]32)[C@@H](C)[C@@H]1O,0.063,16,–
C=C[C@]1(C)C[C@@H](OC(=O)CSc2cccc(NC(=O)c3ccc(B(O)O)c(OC)c3)c2)[C@]2(C)[C@H](C)CC[C@]3(CCC(=O)[C@H]32)[C@@H](C)[C@@H]1O,0.031,0.031,–
C=C[C@]1(C)C[C@@H](OC(=O)CSc2cccc(NC(=O)Cc3ccc(B(O)O)cc3)c2)[C@]2(C)[C@H](C)CC[C@]3(CCC(=O)[C@H]32)[C@@H](C)[C@@H]1O,0.063,0.063,–
C=C[C@]1(C)C[C@@H](OC(=O)CSc2cccc(NC(=O)Cc3cccc(B(O)O)c3)c2)[C@]2(C)[C@H](C)CC[C@]3(CCC(=O)[C@H]32)[C@@H](C)[C@@H]1O,0.063,0.063,–
C=C[C@]1(C)C[C@@H](OC(=O)CSC(C)(C)CNC(=O)[C@H](N)C(C)C)[C@]2(C)[C@H](C)CC[C@]3(CCC(=O)[C@H]32)[C@@H](C)[C@@H]1O [VALNEMULIN],–,–,MIC [3]: ≤ 0.06 µg/mL; MIC [4]: 8 µg/mL; MIC [5]: > 32 µg/mL; MIC [6]: 8 µg/mL
C=C[C@]1(C)C[C@@H](OC(=O)CSc2cccc(NC(=O)c3ccc(B(O)O)cc3Cl)c2)[C@]2(C)[C@H](C)CC[C@]3(CCC(=O)[C@H]32)[C@@H](C)[C@@H]1O,0.063,1,–
C=C[C@]1(C)C[C@@H](OC(=O)CSc2cccc(NC(=O)c3cc(F)c(B(O)O)c(F)c3)c2)[C@]2(C)[C@H](C)CC[C@]3(CCC(=O)[C@H]32)[C@@H](C)[C@@H]1O,0.031,0.031,–
C=C[C@]1(C)C[C@@H](OC(=O)CSc2cccc(NC(=O)c3ccc(B(O)O)o3)c2)[C@]2(C)[C@H](C)CC[C@]3(CCC(=O)[C@H]32)[C@@H](C)[C@@H]1O,0.5,0.063,–
C=C[C@]1(C)C[C@@H](OC(=O)CSc2cccc(NC(=O)c3cccc(B4OC(C)(C)C(C)(C)O4)c3)c2)[C@]2(C)[C@H](C)CC[C@]3(CCC(=O)[C@H]32)[C@@H](C)[C@@H]1O,0.063,0.063,–
C=C[C@]1(C)C[C@@H](OC(=O)CSc2cccc(NC(=O)c3ccc(B(O)O)c([N+](=O)[O-])c3)c2)[C@]2(C)[C@H](C)CC[C@]3(CCC(=O)[C@H]32)[C@@H](C)[C@@H]1O,0.063,0.063,–
C=C[C@]1(C)C[C@@H](OC(=O)CSc2cccc(NC(=O)c3cc(F)cc(B(O)O)c3)c2)[C@]2(C)[C@H](C)CC[C@]3(CCC(=O)[C@H]32)[C@@H](C)[C@@H]1O,0.031,0.031,–
C=C[C@]1(C)C[C@@H](OC(=O)CSc2ccc(NC(=O)c3cccc(B(O)O)c3)cc2)[C@]2(C)[C@H](C)CC[C@]3(CCC(=O)[C@H]32)[C@@H](C)[C@@H]1O,0.031,0.031,–
C=C[C@]1(C)C[C@@H](OC(=O)CSc2cccc(NC(=O)c3ccc(B4OC(C)(C)C(C)(C)O4)cc3)c2)[C@]2(C)[C@H](C)CC[C@]3(CCC(=O)[C@H]32)[C@@H](C)[C@@H]1O,0.063,0.063,–
C=C[C@]1(C)C[C@@H](OC(=O)CSc2cccc(NCc3cccc(B(O)O)c3)c2)[C@]2(C)[C@H](C)CC[C@]3(CCC(=O)[C@H]32)[C@@H](C)[C@@H]1O,0.063,0.125,–
C=C[C@]1(C)C[C@@H](OC(=O)CSc2cccc(NC(=O)c3ccc(C)c(B(O)O)c3)c2)[C@]2(C)[C@H](C)CC[C@]3(CCC(=O)[C@H]32)[C@@H](C)[C@@H]1O,0.031,0.031,–

Compound,MIC [1] [µg/mL],MIC [2] [µg/mL],also measured
C=C[C@]1(C)C[C@@H](OC(=O)CSc2ccccc2NC(=O)c2ccc3c(c2)B(O)OC3)[C@]2(C)[C@H](C)CC[C@]3(CCC(=O)[C@H]32)[C@@H](C)[C@@H]1O,0.063,1,–
C=C[C@]1(C)C[C@@H](OC(=O)CSc2cccc(NC(=O)c3ccc(F)c(B(O)O)c3)c2)[C@]2(C)[C@H](C)CC[C@]3(CCC(=O)[C@H]32)[C@@H](C)[C@@H]1O,0.063,16,–
C=C[C@]1(C)C[C@@H](OC(=O)CSc2cccc(NC(=O)c3cc(N)cc(B(O)O)c3)c2)[C@]2(C)[C@H](C)CC[C@]3(CCC(=O)[C@H]32)[C@@H](C)[C@@H]1O,0.063,0.063,–
C=C[C@]1(C)C[C@@H](OC(=O)CSc2ccc(NC(=O)c3ccc(F)c(B(O)O)c3)cc2)[C@]2(C)[C@H](C)CC[C@]3(CCC(=O)[C@H]32)[C@@H](C)[C@@H]1O,0.063,16,–
22-(3-(((5-Borono-3-pyridinyl)carbonyl)amino)phenylsulfanyl)-22-deoxypleuromutilin,0.25,0.25,–
C=C[C@]1(C)C[C@@H](OC(=O)CSc2cccc(NC(=O)c3cccc(B(O)O)c3)c2)[C@]2(C)[C@H](C)CC[C@]3(CCC(=O)[C@H]32)[C@@H](C)[C@@H]1O,0.063,0.063,–
C=C[C@]1(C)C[C@@H](OC(=O)CSc2cccc(NCc3ccccc3B(O)O)c2)[C@]2(C)[C@H](C)CC[C@]3(CCC(=O)[C@H]32)[C@@H](C)[C@@H]1O,0.031,0.031,–
C=C[C@]1(C)C[C@@H](OC(=O)CSc2cccc(NC(=O)c3cc(B(O)O)cc(C(F)(F)F)c3)c2)[C@]2(C)[C@H](C)CC[C@]3(CCC(=O)[C@H]32)[C@@H](C)[C@@H]1O,0.063,0.5,–
C=C[C@]1(C)C[C@@H](OC(=O)CSc2cccc(NC(=O)c3ccc(B(O)O)s3)c2)[C@]2(C)[C@H](C)CC[C@]3(CCC(=O)[C@H]32)[C@@H](C)[C@@H]1O,0.063,0.063,–
C=C[C@]1(C)C[C@@H](OC(=O)CSc2cccc(NC(=O)c3ccc(OC)c(B(O)O)c3)c2)[C@]2(C)[C@H](C)CC[C@]3(CCC(=O)[C@H]32)[C@@H](C)[C@@H]1O,0.031,0.031,–
C=C[C@]1(C)C[C@@H](OC(=O)CSc2cccc(NC(=O)c3ccc(B(O)O)c(F)c3F)c2)[C@]2(C)[C@H](C)CC[C@]3(CCC(=O)[C@H]32)[C@@H](C)[C@@H]1O,0.031,0.031,–
C=C[C@]1(C)C[C@@H](OC(=O)CSc2cccc(NC(=O)c3cc(OC)cc(B(O)O)c3)c2)[C@]2(C)[C@H](C)CC[C@]3(CCC(=O)[C@H]32)[C@@H](C)[C@@H]1O,0.031,0.031,–
C=C[C@]1(C)C[C@@H](OC(=O)CSc2cccc(NC(=O)c3ccc(B(O)O)cc3F)c2)[C@]2(C)[C@H](C)CC[C@]3(CCC(=O)[C@H]32)[C@@H](C)[C@@H]1O,0.063,0.063,–
C=C[C@]1(C)C[C@@H](OC(=O)CSc2ccc(NC(=O)c3ccc(B(O)O)cc3F)cc2)[C@]2(C)[C@H](C)CC[C@]3(CCC(=O)[C@H]32)[C@@H](C)[C@@H]1O,0.063,4,–
C=C[C@]1(C)C[C@@H](OC(=O)CSc2cccc(NCc3ccc(B(O)O)cc3)c2)[C@]2(C)[C@H](C)CC[C@]3(CCC(=O)[C@H]32)[C@@H](C)[C@@H]1O,0.063,0.063,–
C=C[C@]1(C)C[C@@H](OC(=O)CSc2cccc(NC(=O)c3cc(B(O)O)ccc3F)c2)[C@]2(C)[C@H](C)CC[C@]3(CCC(=O)[C@H]32)[C@@H](C)[C@@H]1O,0.063,0.063,–
C=C[C@]1(C)C[C@@H](OC(=O)CSc2cccc(NC(=O)c3ccc(B(O)O)c(Cl)c3)c2)[C@]2(C)[C@H](C)CC[C@]3(CCC(=O)[C@H]32)[C@@H](C)[C@@H]1O,0.063,1,–
C=C[C@]1(C)C[C@@H](OC(=O)CSc2ccc(NC(=O)c3cc(B(O)O)ccc3F)cc2)[C@]2(C)[C@H](C)CC[C@]3(CCC(=O)[C@H]32)[C@@H](C)[C@@H]1O,0.063,1,–
C=C[C@]1(C)C[C@@H](OC(=O)CSc2cccc(NC(=O)c3cc(C)cc(B(O)O)c3)c2)[C@]2(C)[C@H](C)CC[C@]3(CCC(=O)[C@H]32)[C@@H](C)[C@@H]1O,0.031,0.031,–
C=C[C@]1(C)C[C@@H](OC(=O)CSc2cccc(NC(=O)c3ccc(B(O)O)cc3[N+](=O)[O-])c2)[C@]2(C)[C@H](C)CC[C@]3(CCC(=O)[C@H]32)[C@@H](C)[C@@H]1O,0.25,0.25,–

# Reference: ChEMBL document CHEMBL5614394, “Novel pleuromutilin derivatives conjugated with phenyl-sulfide and boron-containing moieties as potent antibacterial agents against antibiotic-resistant bacteria” (Eur J Med Chem, 2024)
